According to PMC11124822, “Discovery and Anticancer Screening of Novel Oxindole-Based Derivative Bearing Pyridyl Group as Potent and Selective Dual FLT3/CDK2 Kinase Inhibitor” (Pharmaceuticals, 2024):

Tests used:
CAKI-1 = assay: NCI-60 antiproliferative screen (SRB); format: cell-based, human; details: Homo sapiens; 10 µM single dose, 48 h; CAKI-1 (Renal); read-out: Growth inhibition (%)
OVCAR-8 = assay: NCI-60 antiproliferative screen (SRB); format: cell-based, human; details: Homo sapiens; 10 µM single dose, 48 h; OVCAR-8 (Ovarian); read-out: Growth inhibition (%)
OVCAR-3 = assay: NCI-60 antiproliferative screen (SRB); format: cell-based, human; details: Homo sapiens; 10 µM single dose, 48 h; OVCAR-3 (Ovarian); read-out: Growth inhibition (%)
NCI-H460 = assay: NCI-60 antiproliferative screen (SRB); format: cell-based, human; details: Homo sapiens; 10 µM single dose, 48 h; NCI-H460 (NSCLC); read-out: Growth inhibition (%)
A498 = assay: NCI-60 antiproliferative screen (SRB); format: cell-based, human; details: Homo sapiens; 10 µM single dose, 48 h; A498 (Renal); read-out: Growth inhibition (%)
UACC-257 = assay: NCI-60 antiproliferative screen (SRB); format: cell-based, human; details: Homo sapiens; 10 µM single dose, 48 h; UACC-257 (Melanoma); read-out: Growth inhibition (%)
HOP-62 = assay: NCI-60 antiproliferative screen (SRB); format: cell-based, human; details: Homo sapiens; 10 µM single dose, 48 h; HOP-62 (NSCLC); read-out: Growth inhibition (%)
HT29 = assay: NCI-60 antiproliferative screen (SRB); format: cell-based, human; details: Homo sapiens, HT-29; 10 µM single dose, 48 h; HT29 (Colon); read-out: Growth inhibition (%)
UACC-62 = assay: NCI-60 antiproliferative screen (SRB); format: cell-based, human; details: Homo sapiens; 10 µM single dose, 48 h; UACC-62 (Melanoma); read-out: Growth inhibition (%)
[1] = test system: NCI-60 human cancer cell lines; assay: NCI-60 screen, full panel summary; format: cell-based; details: 10 µM single dose; for Mean Growth Percent: all NCI-60 cell lines
Method: In a comprehensive test, compounds were assayed at a single dose concentration (10^−5 M) in the full panel of NCI-60 cancer cell lines.

A549/ATCC = assay: NCI-60 antiproliferative screen (SRB); format: cell-based, human; details: Homo sapiens; 10 µM single dose, 48 h; A549/ATCC (NSCLC); read-out: Growth inhibition (%)
SNB-19 = assay: NCI-60 antiproliferative screen (SRB); format: cell-based, human; details: Homo sapiens; 10 µM single dose, 48 h; SNB-19 (CNS); read-out: Growth inhibition (%)
SF-539 = assay: NCI-60 antiproliferative screen (SRB); format: cell-based, human; details: Homo sapiens; 10 µM single dose, 48 h; SF-539 (CNS); read-out: Growth inhibition (%)
OVCAR-4 = assay: NCI-60 antiproliferative screen (SRB); details: Homo sapiens, OVCAR-4, 48 h, read-out: Growth inhibition (%)
Method: Anticancer activity was tested against 60 cancer cell lines (NCI-60) after 48h treatments with a single dosage of 10 μM of compounds by using sulforhodamine B assay [39] on the traditional 96-well platform. […] The human cancer cell lines of the NCI-60 panel are grown in RPMI 1640 medium supplemented with 5% FBS (fetal bovine serum) and 2 mM L-glutamine. […] For further analysis of promising compounds, five dose screens were performed against the NCI-60 panel. Drug treatments are performed in 5 doses using 10-fold or ½ log dose dilutions.

SW-620 = assay: NCI-60 antiproliferative screen (SRB); format: cell-based, human; details: Homo sapiens; 10 µM single dose, 48 h; SW-620 (Colon); read-out: Growth inhibition (%)
MDA-MB-435 = assay: NCI-60 antiproliferative screen (SRB); format: cell-based, human; details: Homo sapiens; 10 µM single dose, 48 h; MDA-MB-435 (Melanoma); read-out: Growth inhibition (%)
LOX IMVI = assay: NCI-60 antiproliferative screen (SRB); format: cell-based, human; details: Homo sapiens; 10 µM single dose, 48 h; LOX IMVI (Melanoma); read-out: Growth inhibition (%)
SK-MEL-5 = assay: NCI-60 antiproliferative screen (SRB); format: cell-based, human; details: Homo sapiens; 10 µM single dose, 48 h; SK-MEL-5 (Melanoma); read-out: Growth inhibition (%)
ACHN = assay: NCI-60 antiproliferative screen (SRB); format: cell-based, human; details: Homo sapiens; 10 µM single dose, 48 h; ACHN (Renal); read-out: Growth inhibition (%)
SK-OV-3 = assay: NCI-60 antiproliferative screen (SRB); format: cell-based, human; details: Homo sapiens; 10 µM single dose, 48 h; SK-OV-3 (Ovarian); read-out: Growth inhibition (%)
NCI/ADR-RES = assay: NCI-60 antiproliferative screen (SRB); format: cell-based, human; details: Homo sapiens; 10 µM single dose, 48 h; NCI/ADR-RES (Ovarian); read-out: Growth inhibition (%)
M14 = assay: NCI-60 antiproliferative screen (SRB); format: cell-based, human; details: Homo sapiens; 10 µM single dose, 48 h; M14 (Melanoma); read-out: Growth inhibition (%)
HCT-15 = assay: NCI-60 antiproliferative screen (SRB); format: cell-based, human; details: Homo sapiens; 10 µM single dose, 48 h; HCT-15 (Colon); read-out: Growth inhibition (%)
SR = assay: NCI-60 antiproliferative screen (SRB); details: Homo sapiens, 48 h, read-out: Growth inhibition (%)
HOP-92 = assay: NCI-60 antiproliferative screen (SRB); format: cell-based, human; details: Homo sapiens; 10 µM single dose, 48 h; HOP-92 (NSCLC); read-out: Growth inhibition (%)
DU-145 = assay: NCI-60 antiproliferative screen (SRB); format: cell-based, human; details: Homo sapiens; 10 µM single dose, 48 h; DU-145 (Prostate); read-out: Growth inhibition (%)
NCI-H322M = assay: NCI-60 antiproliferative screen (SRB); format: cell-based, human; details: Homo sapiens; 10 µM single dose, 48 h; NCI-H322M (NSCLC); read-out: Growth inhibition (%)
NCI-H23 = assay: NCI-60 antiproliferative screen (SRB); format: cell-based, human; details: Homo sapiens; 10 µM single dose, 48 h; NCI-H23 (NSCLC); read-out: Growth inhibition (%)
BT-549 = assay: NCI-60 antiproliferative screen (SRB); format: cell-based, human; details: Homo sapiens; 10 µM single dose, 48 h; BT-549 (Breast); read-out: Growth inhibition (%)

O=C1Nc2cc(Cl)ccc2C1=Cc1ccc(OCc2ccncc2)cc1 (mixture of isomers) [Compound 5p, (E/Z)-6-Chloro-3-[4-(pyridin-4-ylmethoxy)benzylidene]indolin-2-one]
inhibition at 10 µM (CAKI-1): 52.8%
inhibition at 10 µM (OVCAR-8): 61.3%
inhibition at 10 µM (OVCAR-3): 53%
inhibition at 10 µM (NCI-H460): 36.8%
inhibition at 10 µM (A498): -1.39%
inhibition at 10 µM (UACC-257): 17.2%
inhibition at 10 µM (HOP-62): 21.4%
inhibition at 10 µM (HT29): 37.8%
inhibition at 10 µM (UACC-62): 34.7%
Positive Cytostatic Effect (cell lines with percent growth from 0 to 50 / total number of cell lines) [1]: 21/59
Positive Cytotoxic Effect (cell lines with percent growth of <0 / total number of cell lines) [1]: 0/59
Sensitive/Total Cell Lines [1]: 21/59
The Most Sensitive Cell Line [1]: SF-539
number of cell lines with cytostatic effects [1]: 21
Mean Growth Percent [1]: 41.27
inhibition at 10 µM (A549/ATCC): 27.9%
inhibition at 10 µM (SNB-19): 28.7%
inhibition at 10 µM (SF-539): 94.2%
inhibition at 10 µM (OVCAR-4): 31.8%
inhibition at 10 µM (SW-620): 49.5%
inhibition at 10 µM (MDA-MB-435): 29.2%
inhibition at 10 µM (LOX IMVI): 65.2%
inhibition at 10 µM (SK-MEL-5): 65%
inhibition at 10 µM (ACHN): 34%
melting point: 233 to 235 °C
inhibition at 10 µM (SK-OV-3): 15.5%
inhibition at 10 µM (NCI/ADR-RES): 59.3%
inhibition at 10 µM (M14): 16.9%
inhibition at 10 µM (HCT-15): 76.9%
inhibition at 10 µM (SR): 72.6%
inhibition at 10 µM (HOP-92): 49.6%
inhibition at 10 µM (DU-145): 29.4%
inhibition at 10 µM (NCI-H322M): 22.5%
inhibition at 10 µM (NCI-H23): 57.2%

O=C1Nc2ccc(F)cc2C1=Cc1ccc(OCc2ccncc2)cc1 (mixture of isomers) [Compound 5n, (E/Z)-5-Fluoro-3-[4-(pyridin-4-ylmethoxy)benzylidene] indolin-2-one]
inhibition at 10 µM (CAKI-1): 62.3%
inhibition at 10 µM (OVCAR-8): 56.2%
inhibition at 10 µM (OVCAR-3): 39.2%
inhibition at 10 µM (NCI-H460): 44.4%
inhibition at 10 µM (A498): 12.9%
inhibition at 10 µM (UACC-257): 23.4%
inhibition at 10 µM (HOP-62): 17%
inhibition at 10 µM (HT29): 36.4%
inhibition at 10 µM (UACC-62): 28.4%
Positive Cytostatic Effect (cell lines with percent growth from 0 to 50 / total number of cell lines) [1]: 26/59
Positive Cytotoxic Effect (cell lines with percent growth of <0 / total number of cell lines) [1]: 0/59
Sensitive/Total Cell Lines [1]: 26/59
The Most Sensitive Cell Line [1]: SK-MEL-5
number of cell lines with cytostatic effects [1]: 26
Mean Growth Percent [1]: 46.02
inhibition at 10 µM (A549/ATCC): 29.8%
inhibition at 10 µM (SNB-19): 60.5%
inhibition at 10 µM (SF-539): 41.7%
inhibition at 10 µM (OVCAR-4): 43.4%
inhibition at 10 µM (SW-620): 41.1%
inhibition at 10 µM (MDA-MB-435): 61.7%
inhibition at 10 µM (LOX IMVI): 67.3%
inhibition at 10 µM (SK-MEL-5): 93.1%
inhibition at 10 µM (ACHN): 70.3%
melting point: 233 to 235 °C
inhibition at 10 µM (SK-OV-3): 13.7%
inhibition at 10 µM (NCI/ADR-RES): 74.2%
inhibition at 10 µM (M14): 32.5%
inhibition at 10 µM (HCT-15): 78.8%
inhibition at 10 µM (SR): 85.4%
inhibition at 10 µM (HOP-92): 36.9%
inhibition at 10 µM (DU-145): 38.4%
inhibition at 10 µM (NCI-H322M): 27.6%
inhibition at 10 µM (NCI-H23): 58.6%

O=C1Nc2ccc(F)cc2C1=Cc1ccc(OCc2ccccn2)cc1 (mixture of isomers) [Compound 5f, (E/Z)-5-fluoro-3-[4-(pyridin-2-ylmethoxy)benzylidene]indolin-2-one]
inhibition at 10 µM (CAKI-1): 33.5%
inhibition at 10 µM (OVCAR-8): 3.52%
inhibition at 10 µM (BT-549): 13.2%
inhibition at 10 µM (OVCAR-3): 8.17%
inhibition at 10 µM (NCI-H460): 11.6%
inhibition at 10 µM (A498): 32.5%
inhibition at 10 µM (UACC-257): -4.06%
inhibition at 10 µM (HOP-62): -7.71%
inhibition at 10 µM (HT29): -0.51%
inhibition at 10 µM (UACC-62): 9.94%
Positive Cytostatic Effect (cell lines with percent growth from 0 to 50 / total number of cell lines) [1]: 3/59
Positive Cytotoxic Effect (cell lines with percent growth of <0 / total number of cell lines) [1]: 0/59
Sensitive/Total Cell Lines [1]: 3/59
The Most Sensitive Cell Line [1]: NCI-H522
Mean Growth Percent [1]: 13.74
inhibition at 10 µM (A549/ATCC): -1.04%
inhibition at 10 µM (SNB-19): 12.9%
inhibition at 10 µM (SF-539): 47.7%
inhibition at 10 µM (OVCAR-4): 5.38%
inhibition at 10 µM (SW-620): -2.79%
inhibition at 10 µM (MDA-MB-435): -2.77%
inhibition at 10 µM (LOX IMVI): 12.6%
inhibition at 10 µM (SK-MEL-5): -5.85%
inhibition at 10 µM (ACHN): 23.8%
melting point: 226 to 228 °C
inhibition at 10 µM (SK-OV-3): 3.75%
inhibition at 10 µM (NCI/ADR-RES): 21.7%
inhibition at 10 µM (M14): -5.09%
inhibition at 10 µM (HCT-15): 10.7%
inhibition at 10 µM (HOP-92): 32.9%
inhibition at 10 µM (DU-145): 7.73%
inhibition at 10 µM (NCI-H322M): 3.29%
inhibition at 10 µM (NCI-H23): 28%
